Measured values: article PMC12195250, “Synthesis, Biological Evaluation, Molecular Dynamics, and QM-MM Calculation of Spiro-Acridine Derivatives Against Leishmaniasis” (Microorganisms, 2025)
“Also recorded” adds a separate entry of the source. Like-named read-outs stand apart in the source and are kept apart here.

Assays:
[1] = system: L. amazonensis promastigotes (Strain MHOM/BR/PH8); assay: Anti-promastigote effect, Neubauer chamber counting; format: cell-based, Leishmania amazonensis; conditions: 72 h incubation, read-out: L. amazonensis IC50PRO
Experimental: The promastigote cultures of L. infantum (Strain MHOM/BR/70/BH46) and L. amazonensis (Strain MHOM/BR/PH8) were kept in Schneider medium (Sigma-Aldrich, St. Louis, MO, USA) supplemented with 20% fetal bovine serum (FBS) and 1% streptomycin/penicillin in a B.O.D. incubator (J. Prolab, model JP. 100 LBCM/CPAM) at 26 °C. The promastigote strains were used in the exponential growth phase in all stages for experimental purposes.
The Neubauer chamber method was used to assess the inhibitory concentrations of the synthesized spiro-acridines capable of eliminating 50% of the promastigotes in cultures of L. amazonensis and L. infantum (IC50) strains. Promastigotes from both species were collected, counted, and diluted in Schneider’s medium (Sigma-Aldrich, St. Louis, MO, USA) supplemented with 20% fetal bovine serum (FBS) at a final concentration of 1 × 10^6 cells/mL. The evaluated promastigotes were then exposed to different concentrations of the tested compounds (10, 5, 2.5, 1.25, and 0.625 μg/mL). The positive control used the commercial drug Amphotericin B®, while the negative control consisted of promastigotes incubated in Schneider’s medium alone. After 72 h of incubation at 25 °C, culture growth was observed by counting the viable cells using a Neubauer chamber and calculated using the following Equation (1): No. Leishmania/mL = No. of cells counted × No. of Neubauer chamber(1) quadrants × the dilution used × 10^4 (Neubauer chamber correction factor)
The concentration parameter that inhibits 50% of parasite growth (IC50) was used to estimate the growth inhibition of the promastigote species of Leishmania sp. Thus, IC50 was determined by linear regression analysis with SPSS 8.0 software for Windows. Each test was performed in two independent experiments, with different cultures and in technical triplicate.

[2] = system: macrophages infected with L. amazonensis; assay: Reactive oxygen and nitrogen species (DCF-DA, DAF-FM diacetate); format: cell-based; conditions: 24 h; for expression of ROS: 2, 4 and 8 µg/mL, DCF-DA, compared to basal macrophage
Text: The assay for the quantification of reactive oxygen species (ROS) and reactive nitrogen species (RNS) was executed using, respectively, the probe 2′,7′-dichlorodihydrofluorescein diacetate (DCF-DA) and 4-amino-5-methylamino-2′,7′-difluorofluorescein diacetate (DAF-FM diacetate), which produce 2–7-dichlorofluorescein (DCF) and 4-amino-5-methylamino-2′,7′-difluorofluorescein (DAF-FM) in the presence of the respective reactive species. Therefore, initially, macrophages were adhered to and infected with L. amazonensis in a plate, followed by the treatment with AMTAC-02 or ACMD-03 at concentrations of 2, 4, and 8 μg/mL. Subsequently, following a 24-h treatment period, the plates were incubated for 30 min with the DCF-DA probe diluted in saline (pH 7.2) and for 1 h with the DAF-FM diacetate probe diluted in saline (pH 7.2), respectively, in a humid chamber at 37 °C with 5% CO2, protected from light. The cells were washed twice with saline (pH 7.2) at room temperature and then resuspended in 200 µL of saline under the same conditions. The negative control comprised uninfected and untreated macrophages, while the positive control comprised untreated macrophages infected with L. amazonensis. Afterward, the fluorescence intensity in each sample was captured using the BD LRS II FORTESSA flow cytometer and the DIVA program version 7 (BD Bioscience). The mean fluorescence intensity (MFI) was then obtained by processing the data in FlowJoTM version 10.6.1. The experiment was performed in triplicate, and the results were calculated as the difference in MFI in each group.

[3] = system: J774 macrophages infected with L. amazonensis amastigotes; assay: Cytokine profile by cytometry bead assay (CBA); format: cell-based; conditions: 24 h; for IL-6 expression: 8 µg/mL, versus untreated infected macrophages; for modulation of the IL-2 response: basal or infected macrophages, 2, 4 and 8 µg/mL; for IL-4 expression / IL-10 expression / TNF-α expression: infected macrophages, 2, 4 and 8 µg/mL; for TNF-α expression: versus untreated infected
Experimental: The assessment of the influence of spiro-acridine derivatives on the cytokine profile of immunological responses was carried out by the quantification of the cytokines IL-2, IL-4, IL-6, IL-10, IL-17A, INF-γ, and TNF-α in supernatants of cell cultures of J774 macrophages infected with L. amazonensis amastigotes through cytometry bead assay (CBA), according to the manufacturer’s instructions (BD Bioscience, Franklin Lakes, NJ, USA). The cells were adhered to a plate, infected with amastigotes of L. amazonensis, and treated with the spiro-acridines under analysis in the following concentrations: 2, 4, and 8 μg/mL. After the 24-h treatment period, 50 μL of the supernatant from each well was transferred to a conical tube, while 50 μL of the capture bead mixture and 50 μL of the detection reagent were added. The samples were incubated for 2 h at room temperature and protected from light. After incubation, 500 μL of washing buffer was added to each tube, followed by centrifugation for 5 min. The supernatant was discarded, and 300 μL of washing buffer was added. A calibration curve containing the following concentrations of each cytokine was added to the experiment: 0, 20, 40, 80, 156, 312.5, 625, 1250, 2500, and 5000 pg/mL. Uninfected and untreated macrophages were used as the negative control, while the untreated macrophages infected with L. amazonensis were used as the positive control. The fluorescence intensity in each sample was captured on the BD LRS II FORTESSA flow cytometer using the DIVA program version 7 (BD Bioscience), and the fluorescence data was processed using the FCAP array program version 3 (BD Bioscience). The experiments were performed in triplicate.

[4] = system: human red blood peripheral cells (O+); assay: Hemocompatibility (hemolysis) in red blood cells; format: cell-based; conditions: 1 h at 37 °C
Experimental: The hemocompatibility of the spiro-acridine derivatives was determined using human red blood peripheral cells (O+) from healthy adults. The erythrocytes were diluted in phosphate-buffered saline (PBS) to a concentration of 5% in an 80 µL suspension and subsequently incubated with 20 µL of different concentrations of spiro-acridine derivatives and Amphotericin B® (400, 200, 100, 50, 25, 12,5, 6,25 and 3,12 μg/mL). Afterward, the samples were incubated for 1 h at 37 °C in a B.O.D incubator, and the reaction was stopped by adding 200 μL of PBS (1.5 mM KH2PO4, 8.1 mM Na2HPO4, 136.9 mM NaCl, and 2.6 mM KCl, pH 7.2). The samples were centrifuged at 2000 rpm for 10 min, at room temperature. The supernatants were collected and subjected to spectrophotometry using a spectrophotometer (model Biosystems ELx800, Curitiba, PR, Brazil) at 540 nm. The hemolysis percentage was determined as [(Abssam − Abscon)/(Abstot − Abscon) × 100], where Abssam refers to the absorbance of the sample, Abscon to the absorbance of the blank control (without compounds), and Abstot to the absorbance of total hemolysis (obtained by replacing the sample solution with an equal volume of Milli-Q water). The results were expressed as average hemolytic concentration (HC50), considering the positive control as 100% hemolysis.

Row | SMILES | IC50 [1] [µM] | expression of ROS [2] | expression of RNS ([2]; DAF-FM diacetate, versus infected macrophage) | IL-6 expression [3] | modulation of the IL-2 response [3] | IL-4 expression [3] | IL-10 expression [3] | TNF-α expression [3] | IL-17A level (Th17 response) ([3]; versus basal and parasite-infected macrophages) | HC50 (concentration capable of promoting 50% hemolysis) [4] [µM] | IC50 ([1]; Leishmania amazonensis) [µM]
1 | N#CC1=CC2(c3ccccc3Nc3ccccc32)N(c2ccc(Cl)cc2)C1=O [ACMD-03, (E)1′-(4-chlorophenyl)-5′-oxo-1′, 5′-dihydro-10H-spiro{acridine-9,2′-pyrrole]-4′-carbonitrile] | 11 | significantly increased ROS expression | intensified RNS expression; also recorded: significantly increased (* p < 0.05) RNS at a concentration of 2 µg/mL | significant decrease in IL-6 expression | did not demonstrate a modulation of the IL-2 response | Neither of the two molecules significantly influenced IL-4 expression | significantly increased the expression of IL-10 at concentrations of 4 and 8 µg/mL | significant reduction in TNF-α expression | significant increase in this interleukin at a concentration of 4 µg/mL | >400 | 
2 | COc1ccc(/C=N/N2C(=O)C(C#N)=CC23c2ccccc2Nc2ccccc23)cc1 [AMTAC-02, (E)-1′-((4-methoxybenzylidene)amino)-5′-oxo-1′,5′-dihydro-10H-spiro[acridine-9,2′-pyrrole]-4′-carbonitrile] |  | significantly increased ROS expression |  | significant decrease in IL-6 expression | did not demonstrate a modulation of the IL-2 response | Neither of the two molecules significantly influenced IL-4 expression | no significant increase in IL-10 expression | significant reduction in TNF-α expression |  | >400 | 0.73
